This note sets out measurements from ChEMBL document CHEMBL1144243, “Isolation, structure, and antibacterial activity of thiazomycin A, a potent thiazolyl peptide antibiotic from Amycolatopsis fastidiosa” (Bioorg Med Chem, 2008).

Data set [1] deals with Enterococcus faecalis. Kind of data set: Antibacterial activity against vancomycin-susceptible Enterococcus faecalis CL8516 after 18 to 20 hrs by serial dilution method. It counts as functional.
Data set [2] concerns Escherichia coli. Kind of data set: Antibacterial activity against Escherichia coli MB2884 after 18 to 20 hrs by serial dilution method. It is filed as functional.
Data set [3] deals with Haemophilus influenzae. Kind of data set: Antibacterial activity against Haemophilus influenzae MSD2261 after 18 to 20 hrs by serial dilution method. It counts as functional.
The test system of data set [4] is Staphylococcus aureus. Kind of data set: Inhibition of protein synthesis in Staphylococcus aureus EP167 after 30 mins by scintillation counter. It counts as functional, organism-based. As to conditions: 0.5 h.
Data set [5] relates to Staphylococcus aureus. Kind of data set: Inhibition of peptidoglycan synthesis in Staphylococcus aureus EP167 after 30 mins by scintillation counter. It counts as functional, organism-based.
Data set [6] relates to Staphylococcus aureus. Kind of data set: Antibacterial activity against methicillin-susceptible Staphylococcus aureus MB2865 after 18 to 20 hrs by serial dilution method. It counts as functional.
Data set [7] concerns Staphylococcus aureus. Kind of data set: Inhibition of DNA synthesis in Staphylococcus aureus EP167 after 30 mins by scintillation counter. It counts as functional, organism-based.
The nature of data set [8]: Aqueous solubility of the compound. It counts as physicochemical. Conditions: water.
In data set [9] the test system is Staphylococcus aureus. Kind of data set: Antibacterial activity against Staphylococcus aureus EP167 after 18 to 20 hrs by serial dilution method. It counts as functional.
In data set [10] the test system is Candida albicans. Kind of data set: Antimicrobial activity against Candida albicans MY1055 after 18 to 20 hrs by serial dilution method. It counts as functional.
Data set [11] relates to Staphylococcus aureus. Kind of data set: Inhibition of RNA synthesis in Staphylococcus aureus EP167 after 30 mins by scintillation counter. It counts as functional, organism-based.
For data set [12], the system named is Streptococcus pneumoniae. Kind of data set: Antibacterial activity against penicillin-susceptible Streptococcus pneumoniae CL2883 after 18 to 20 hrs by serial dilution method. It counts as functional.
In data set [13] the test system is Staphylococcus aureus. Kind of data set: Inhibition of phospholipid synthesis in Staphylococcus aureus EP167 after 30 mins by scintillation counter. It counts as functional, organism-based.
The subject of data set [14] is Staphylococcus aureus. Kind of data set: Antibacterial activity against methicillin-resistant Staphylococcus aureus MB5393 containing COL plasmid after 18 to 20 hrs by serial dilution method. It is filed as functional.

Each structure is given as a SMILES string. Values after ≈ are worked out from the molar mass of the structure shown. Active and inactive are the calls of the source. The rule behind the calls is not given here.

In general, IC50 refers to the concentration at which inhibition is half-maximal. Lower therefore signals greater potency in that assay. As a reminder, the solubility is how much of the substance goes into solution per volume. A high value points to a readily soluble substance. Take `C=C(NC(=O)c1csc(-c2nc3c(cc2O)-c2nc(cs2)C(=O)N[C@@H]([C@@H](C)O)C(=O)N/C(=C(\C)OC)c2nc(cs2)C(=O)N[C@@H]2c4nc(cs4)C(=O)N[C@@H](COC(=O)c4c5c6c(cccc6n4O)COC(=O)[C@@H](O[C@H]4C[C@]6(C)OC(C)N(C)[C@@H]6[C@H](C)O4)[C@H]2OC5)c2nc-3cs2)n1)C(N)=O` (some centres undefined) [THIAZOMYCIN A]: the MIC in [1] is 0.25 µg/mL (≈ 0.172 µM); in [2], above 32 µg/mL; in data set [3], above 32 µg/mL; in [6] it was 0.06 µg/mL (≈ 0.0414 µM); in [9] it was 0.004 µg/mL (≈ 0.00276 µM); in [10] it was above 32 µg/mL. Moreover, the figures for the MIC in data set [12] and in data set [14] were 0.002 µg/mL (≈ 0.00138 µM) and 0.06 µg/mL (≈ 0.0414 µM), respectively. In addition, in [4], the IC50 came out at 0.7 µg/mL (≈ 0.483 µM). Moreover, the result in [5], in data set [7], in data set [11] and in data set [13] was inactive. This compound also had a solubility in [8] below 100 µg/mL.

With `C=C(NC(=O)c1csc(-c2nc3c(cc2O)-c2nc(cs2)C(=O)N[C@@H]([C@@H](C)O)C(=O)N/C(=C(\C)OC)c2nc(cs2)C(=O)N[C@@H]2c4nc(cs4)C(=O)N[C@@H](COC(=O)c4c5c6c(cccc6n4O)COC(=O)[C@@H](O[C@H]4C[C@]6(C)OCN(C)[C@@H]6[C@H](C)O4)[C@H]2OC5)c2nc-3cs2)n1)C(N)=O` [THIAZOMYCIN], the MIC was 0.064 µg/mL (≈ 0.0446 µM) in [1]; above 32 µg/mL in [2]; above 32 µg/mL in [3]; 0.016 µg/mL (≈ 0.0111 µM) in data set [6]; above 32 µg/mL in [10]; 0.004 µg/mL (≈ 0.00279 µM) in data set [12]. Further, the MIC in data set [14] turned out to be 0.032 µg/mL (≈ 0.0223 µM).

In the case of `CC(=O)NC[C@H]1CN(c2ccc(N3CCOCC3)c(F)c2)C(=O)O1` [LINEZOLID], the MIC in [2], in data set [3] and in [10] was above 32 µg/mL throughout.
